From patent publication US20260098072A1, “METHODS OF STIMULATING APPETITE AND/OR INCREASING BODY WEIGHT USING NON-NATURALLY OCCURRING MELANOCORTIN RECEPTOR ANTAGONIST ANALOGS” (Endevica Bio, Inc., priority 2022, published 2026)
“And” between values parts separate entries of the source, which are not always exact repeats. Equal values may be shown once. “Also recorded” adds a separate entry of the source. Each block holds one compound with its values, some of them ahead of it. Positions of bridges follow the written chain, without caps; N, C: chain ends. Non-standard residues stand in square brackets, D forms with d. Residues, ends and D or L forms follow the SMILES beside them. d2Nal = N[C@H](Cc1ccc2ccccc2c1)C(=O)O; Nle = CCCC[C@H](N)C(=O)O

What was measured:
Lewis sarcoma rat model = Lewis sarcoma rat model of cancer cachexia; assay type: in vivo
Protocol: This sarcoma is an aggressive form of cancer that produces significant cachexia. Popp et al., Cancer 49 (6): 1212-1220 (1982). In the protocol, “treatment” began 8-days after tumor implantation, with a significant decrease in food intake from baseline. Body composition was determined by NMR prior to tumor implantation, and on the final day of the experiment after tumor resection, by ECHO MRI (NMR). Tumor implantation produces cachexia on or about the sixth day. The non-naturally occurring melanocortin analog or saline was administered after day 8 and continued through day 12.

LPS model of cachexia = assay: LPS-induced cachexia assay in rats; assay type: in vivo, rat; details: for peripheral (IP) anti-cachexia activity / blood-brain barrier transport: peripheral administration
Protocol: The LPS model uses rats were maintained on a 12 h light/dark schedule with ad libitum access to food and water. Animals were handled daily for a minimum of three consecutive days to decrease non-specific handling stress. On the day of the experiment, individually housed animals received intraperitoneal injections of LPS dissolved in 0.5% low-endotoxin BSA, 0.9% saline or 0.5% BSA in 0.9% saline alone, and were returned to their home cage. The drug or control was administered (ICV, IP, or PO, depending on the type of study) 1-hour after LPS injection.
In the experiments performed in accordance with the present technology, a series of melanocortin receptor antagonist peptides were examined in a bacterial endotoxin inducing cachexia assay. For this assay, a rat is challenged with a single peripheral injection of lipopolysaccharide (LPS). LPS is a heat-stable lipo-polysaccharide, the major component of the outer membrane (capsule) of gram negative bacteria. In non-capsulated strains, it appears as a cell surface protein. LPS produces a strong immune response, including secretion of the proinflammatory cytokines Tumor Necrosis Factor α (TNFα) and interleukin-1 (IL-1). Proinflammatory cytokines are known factors that induce cachexia.
Rats are maintained on a 12-hour light/dark cycle. Animals are handled daily for a minimum of 5 consecutive days to acclimate them to the handling required for the experiment. […] On the day of the experiment, individually housed animals receive intraperitoneal (IP) injections of LPS dissolved in 0.5% low-endotoxin BSA, 0.9% saline or 0.5% BSA in 0.9% saline alone, and returned in their home cage. Melanocortin receptor antagonist peptides were administered (IP or by gavage, depending on the type of study) one hour after the LPS injection. The extent of cachexia is measured by the reduction in food intake, measured every two hours. The cachexia typically lasts only a single day. However, rats lose up to 5% of their body weight during a 12-hour light cycle, making up this loss plus food needed for normal growth during the 12-hour dark cycle. Thus, failure to eat appropriately during a single dark cycle is determinable from the animal's weight and any changes thereof.
A series of melanocortin receptor antagonist peptides were examined in a bacterial toxin inducing cachexia assay. In this assay, a rat was challenged with a single peripheral injection of lipopolysaccharide (LPS), a bacterial toxin that rapidly induces acute cachexia. The extent of cachexia was measured as a reduction in food intake, measured every two hours. The cachexia typically lasts only a single day.

[1] = test system: urethane-anesthetized rats; assay: Cardiovascular effects (MAP, heart rate, ECG) in urethane-anesthetized rats
Protocol: These studies were performed in urethane-anesthetized rats, since anesthesia is required for six-lead ECG monitoring. […] Initial selection of doses was guided by FDA exploratory IND studies with a recommendation for at least a 100-fold excess of the human dose.

human MC3R = molecular target: T1, human MC3R (Homo sapiens, UniProt P41968); assay: cAMP accumulation assay (HTRF), antagonist activity at MC3R; assay type: cell-based; details: HEK293/CRE-luc/MC3R
T1 construct: expressed in transfected cells; host or cells: HEK293/CRE-luc/MC3R
Protocol: (§1) The antagonist activity of exemplary non-naturally occurring melanocortin analogs (SEQ ID NOs: 3, 4, 6, 9-11, 14, 15, and 291-309) at the melanocortin 3 receptor (MC3R) and melanocortin 4 (MC4R) receptor was measured via cAMP accumulation assay, according to the following procedure.
(§2) Recombinant cell lines shown in Table 1 were stimulated with melanocortin receptor antagonists and evaluated for cyclic adenosine monophosphate (cAMP) levels as a measurement of receptor activation. cAMP levels were quantified using Homogeneous Time-Resolved Fluorescence (HTRF). The stimulation and CAMP measurement were performed sequentially. First, the compound stimulated the G-protein coupled receptor (GPCR) which then induced downstream signaling, which was measured soon after. Cell lines and stimulated receptors used are detailed in Table 1.
(§3) Twenty-seven exemplary synthetic peptides were tested for antagonist activity at the human MC3R and MC4R at concentrations ranging from 0.1 nM to 1,000 nM. After stimulation, the level of cyclic adenosine monophosphate (CAMP) in each well was quantified via Homogenous Time-Resolved Fluorescence (HTRF) as a measurement of receptor activity. Dose-response curves and estimated IC50 values were then obtained for each antagonist peptide against the MC3R and MC4R. HS024 (TFA) and was used as a positive control for the antagonist activity of MC3R (FIG. 1A) and MC4R (FIG. 1B).

human MC4R = molecular target: T2, human MC4R (Homo sapiens, UniProt P32245); assay: cAMP accumulation assay (HTRF), antagonist activity at MC4R; assay type: cell-based
T2 construct: expressed in transfected cells; host or cells: HEK293/MC4R/CRE-GFP
Protocol: as §1, §2, §3

[2] = TCMCB07 in plasma and cerebrospinal fluid after IV administration (blood-brain barrier transport); assay type: in vivo, rat
Protocol: Urethane-anesthetized rats had polyethylene (PE)-tubing cannulas placed in their femoral artery and vein. Each rat was then placed in a small animal stereotaxic apparatus, their head fixed in the lateral plane with ear bars, and their head placed in a 45-50° downward angle by placing their nose below an adjustable tooth bar. This position placed the animal's cistern magna at the highest vertical position of its body. The dural covering of the dorsal cistern magna was exposed.
A stainless steel cannula, with one end attached to PE-tubing, was placed in a stereotaxic tower cannula holder (open end down). The free end of the PE-tubing was attached to a 100 µL gas-tight Hamilton syringe with a 28-gauge needle. The cannula was adjusted to a position that approximated the middle of the exposed cistern magna, and the cannula lowered until it touched the dura mater. […] The dura has a degree of flexibility such that the cannula can depress it before it pierces it. […]
For the experimental procedure, baseline samples of blood and CSF were taken (“O” time points), followed by the IV administration of 750 nmol/kg TCMCB07. […] Both CSF and plasma were stored at −80° C. until analyzed by (HPLC) with spectrofluoremetric monitoring at 230 nm excitation and […] (the fluorescence maximum for the Nal residue). […]

[3] = Phase 1 clinical trial (NCT05529849), safety; assay type: in vivo, human; details: 5 SAD and 3 MAD cohorts
Text: Safety results of the single center, inpatient, double-blind, randomized, sequential assessment of 5 SAD (1a-5a) and 3 MAD (1b-3) cohorts dosed over 5 days TCMCB07 Phase 1 Clinical Trial (NCT05529849) have been summarized in FIG. 25. The entirety of the TCMCB07 Phase 1 Clinical Trial (NCT05529849) is incorporated herein by reference.

Lewis sarcoma rat = assay: Reversal of cachexia-induced lethargy; assay type: in vivo; details: once-daily peripheral dosing for 48 hours (2 IP doses)
Text: In animals and humans, cachexia produces “lethargy,” i.e., the aversion to activity. Grossberg et al., J. Neurosci. 31 (31): 11376-11386. […] This therapeutic effect is dependent on a stabilized non-naturally occurring melanocortin analog C-terminal extension. Video recordings characterized control animal behavior as neo-exploratory movement about the cage, i.e., repeated “sniffing” the air to presumably sample odors (e.g., neighboring animals), grooming, and intermittent bouts of eating and drinking. Caldecott-Hazard et al., J. Neurosci. 8 (6): 1951-1961 (1988).
The animal typically remains in one position for an extended period of time (>1 minute). Occasionally it will change position, assuming the new position for an extended period. The rats show no grooming behavior, evident in the appearance of their coat and eyes.

[4] = molecular target: human melanocortin 3 receptor (MC3R) (human) (UniProt P41968); assay: cell-based or functional assay
[5] = molecular target: human melanocortin 4 receptor (MC4R) (human) (UniProt P32245); assay: cell-based or functional assay
Chain of human melanocortin 4 receptor (MC4R) (human) (P32245 whole entry): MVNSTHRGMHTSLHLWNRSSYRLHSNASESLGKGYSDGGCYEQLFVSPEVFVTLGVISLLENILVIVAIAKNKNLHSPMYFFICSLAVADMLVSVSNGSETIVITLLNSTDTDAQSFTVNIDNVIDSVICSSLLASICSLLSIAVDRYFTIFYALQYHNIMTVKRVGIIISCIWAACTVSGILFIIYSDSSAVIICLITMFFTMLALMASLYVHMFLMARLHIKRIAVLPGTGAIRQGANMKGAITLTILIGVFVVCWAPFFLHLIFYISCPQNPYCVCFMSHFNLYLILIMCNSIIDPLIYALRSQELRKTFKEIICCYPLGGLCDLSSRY

T2 sequence (P32245 whole entry): as above
T1 sequence (P41968 whole entry): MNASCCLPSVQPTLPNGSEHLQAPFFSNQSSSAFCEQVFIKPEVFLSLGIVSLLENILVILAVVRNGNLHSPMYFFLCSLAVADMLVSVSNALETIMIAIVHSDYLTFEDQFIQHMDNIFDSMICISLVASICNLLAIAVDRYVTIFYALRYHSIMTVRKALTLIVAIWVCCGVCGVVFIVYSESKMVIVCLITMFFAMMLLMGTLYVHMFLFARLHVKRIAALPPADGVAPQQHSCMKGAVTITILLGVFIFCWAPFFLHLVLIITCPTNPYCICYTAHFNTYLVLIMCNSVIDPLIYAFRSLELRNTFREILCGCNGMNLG
Chain of human melanocortin 3 receptor (MC3R) (human) (P41968 whole entry): as above

Compound: CCCC[C@H](NC(C)=O)C(=O)N[C@H]1CC(=O)NCCCC[C@@H](C(=O)N[C@@H](C(=O)N2CCC[C@@H]2C(=O)N[C@@H](C(=O)O)[C@H](C)O)[C@H](C)O)NC(=O)[C@H](Cc2c[nH]c3ccccc23)NC(=O)[C@H](CCCNC(=N)N)NC(=O)[C@@H](Cc2ccc3ccccc3c2)NC(=O)[C@@H]2CCCN2C1=O [TCMCB01, Ac-Nle-c[Asp-Pro-DNal(2′)-Arg-Trp-Lys]-DThr-DPro-DThr] (Ac-[Nle]DP[d2Nal]RWK[dT][dP][dT]-OH; lactam 2-7)
food intake (reversal of cachexia-anorexia) (Lewis sarcoma rat model; 2 nmol once per day): equivalent to AGRP; also recorded: reversed the cachexia-anorexia of the tumor burden
potency compared with AGRP and SHU9119 (Lewis sarcoma rat model; 2 nmol once per day): as potent as the natural melanocortin system inhibitor Agouti Related Protein (AGRP), and significantly more potent than SHU9119
body weight after tumor implantation (Lewis sarcoma rat model; daily body weight): significantly greater than saline controls
lean body mass (NMR after tumor excision) (Lewis sarcoma rat model; p=0.05): increased lean body mass
anti-cachectic effect relative to AGRP (Lewis sarcoma rat model; related study (not shown)): 20 % greater than AGRP
anti-cachectic activity after ICV administration (LPS model of cachexia): only produced an anti-cachexia effect when given by IVt administration
peripheral (IP) anti-cachexia activity / blood-brain barrier transport (LPS model of cachexia): did not have peripheral activity; also recorded: no blood-brain barrier transport
Duration ([1]; 600 nmol): 0 min
Peak Heart Rate Response (BPM) ([1]; 600 nmol): 0/0 BPM
Peak MAP Response (Δ mm Hg) ([1]; 600 nmol): 0/0 mm Hg
cardiovascular activity / side effects ([1]; rat, in vivo): little cardiovascular activity

Emax (human MC3R; 0.1 nM to 1,000 nM, read-out: Max Activation %): 112%
IC50 (human MC3R; estimated from dose-response curve): < 10000 nM and 43.4 nM
Emax (human MC4R; HEK293, HEK293/MC4R/CRE-GFP, 0.1 nM to 1,000 nM, read-out: Max Activation %): 118%
IC50 (human MC4R; HEK293/MC4R/CRE-GFP, estimated from dose-response curve): < 10000 nM and 26.9 nM
level at time molar at 2 min ([2]; rat, plasma, 2 minutes post-intravenous administration, 750 nmol/kg, read-out: Concentration in plasma): 7 µM
Compound: CCCC[C@H](NC(C)=O)C(=O)N[C@H]1CC(=O)NCCCC[C@@H](C(=O)N[C@@H](C(=O)N2CCC[C@@H]2C(N)=O)C(C)C)NC(=O)[C@H](Cc2c[nH]c3ccccc23)NC(=O)[C@H](CCCN=C(N)N)NC(=O)[C@@H](Cc2ccc3ccccc3c2)NC(=O)[C@@H]2CCCN2C1=O [TCMCB07, Ac-Nle-c[Asp-Pro-dNal(2′)-Arg-Trp-Lys]-dVal-dPro-NH2] (Ac-[Nle]DP[d2Nal]RWK[dV][dP]-NH2; lactam 2-7)
presence in CSF / transport through the blood-brain-barrier ([2]; IV 750 nmol/kg, HPLC effluent by mass spectrometry): confirmed the presence of TCMCB07 in CSF; also recorded: direct physical evidence of TCMCB07 transport through the blood-brain-barrier
CAEs [3]: zero
clinically relevant abnormal laboratory test results [3]: zero
clinically relevant abnormal physical exams [3]: zero
drug-related SAEs [3]: zero
patients having abnormal ECGs [3]: zero

Compound: Ac-Nle-c[Asp-Pro-DNal(2′)-Arg-Trp-Lys]-β^3Pro-β^2Val-NH2 [TCMCB05]
food intake and body weight, 24-hours (LPS model of cachexia; 0.2 mg/kg intraperitoneally): had stimulated appetites and gained weight
anti-cachectic activity after ICV administration (LPS model of cachexia): molar activity equivalent to TCMCB02
molar activity relative to TCMCB02 (LPS model of cachexia; ICV-administration): 10 fold
peripheral (IP) anti-cachexia activity / blood-brain barrier transport (LPS model of cachexia): had IP anti-cachexia activity; also recorded: had peripheral anti-cachexia activity
behavior (lethargy) (Lewis sarcoma rat): restored “normal” behavior to rats

Compound: Ac-Nle-c[Asp-Pro-dNal(2′)-Arg-Trp-Lys]-dVal-dPro-NH2 (Ac-[Nle]DP[d2Nal]RWK[dV][dP]-NH2; lactam 2-7) [TCMCB07]
gastrocnemius mass (Lewis sarcoma rat model; low and high dose): preservation of gastrocnemius mass

IC50 (cAMP by HTRF, antagonist dose-response) [4]: 867 nM
Max Activation % [4]: 102%
IC50 (cAMP by HTRF, antagonist dose-response) [5]: 153 nM
Max Activation % [5]: 104%
Compound: HS024 (TFA) (peptide)
